Assay results taken from ChEMBL document CHEMBL1151943, “The glutamate receptor GluR5 agonist (S)-2-amino-3-(3-hydroxy-7,8-dihydro-6H-cyclohepta[d]isoxazol-4-yl)propionic acid and the 8-methyl analogue: synthesis, molecular pharmacology, and biostructural characterization” (J Med Chem, 2009).

Tests used:
[1] = molecular target: Glutamate NMDA receptor; experiment: Displacement of […] from NMDA receptor in rat cortical synaptosomes; type: subcellular, Brain
[2] = molecular target: T1, Glutamate receptor 1 (Rattus norvegicus, UniProt P19490); experiment: Displacement of [3H]AMPA from rat recombinant GluR1 flop isoform expressed in baculovirus infected Sf9 cells
[3] = molecular target: T2, Glutamate receptor 2 (Rattus norvegicus, UniProt P19491); experiment: Displacement of [3H]AMPA from rat recombinant GluR2(R) RNA-edited flop isoform expressed in baculovirus infected Sf9 cells
[4] = molecular target: T3, Glutamate receptor 3 (Rattus norvegicus, UniProt P19492); experiment: Displacement of [3H]AMPA from rat recombinant GluR3 flop isoform expressed in baculovirus infected Sf9 cells
[5] = molecular target: T4, Glutamate receptor 4 (Rattus norvegicus, UniProt P19493); experiment: Displacement of [3H]AMPA from rat recombinant GluR4 flop isoform expressed in baculovirus infected Sf9 cells
[6] = molecular target: T1, Glutamate receptor 1; experiment: Agonist activity at rat recombinant GluR1 flip isoform expressed in HEK293 cells assessed as increase in intracellular calcium level by Fluo-4/AM assay; type: functional, cell-based
[7] = molecular target: T3, Glutamate receptor 3; experiment: Agonist activity at rat recombinant GluR3 flip isomer expressed in HEK293 cells assessed as increase in intracellular calcium level by Fluo-4/AM assay; type: functional, cell-based
[8] = molecular target: T1, Glutamate receptor 1; experiment: Agonist activity at ConA-treated rat GluR1 flip isoform expressed in Xenopus laevis oocytes assessed as glutamic acid-induced maximal current by two-electrode voltage clamp method; type: functional, cell-based, Oocyte
[9] = molecular target: T2, Glutamate receptor 2
Description: Agonist activity at rat recombinant GluR2(Q) RNA-edited isoform expressed in HEK293 cells assessed as increase in intracellular calcium level by Fluo-4/AM assay

[10] = Displacement of [3H]AMPA from AMPA receptor in rat cortical synaptosomes; type: subcellular, Brain
[11] = Displacement of [3H]KA from KA receptor in rat cortical synaptosomes; type: subcellular, Brain
[12] = molecular target: Glutamate receptor 1 (Rattus norvegicus) (UniProt P19490); experiment: Agonist activity at rat recombinant GluR1 flip isoform expressed in HEK293 cells assessed as increase in intracellular calcium level by Fluo-4/AM assay relative to glutamic acid; type: functional, cell-based
[13] = molecular target: Glutamate receptor 3 (Rattus norvegicus) (UniProt P19492); experiment: Agonist activity at rat recombinant GluR3 flip isomer expressed in HEK293 cells assessed as increase in intracellular calcium level by Fluo-4/AM assay relative to glutamic acid; type: functional, cell-based
[14] = molecular target: T4, Glutamate receptor 4; experiment: Agonist activity at rat recombinant GluR4 flip isomer expressed in HEK293 cells assessed as increase in intracellular calcium level by Fluo-4/AM assay; type: functional, cell-based
[15] = molecular target: Glutamate receptor 4 (Rattus norvegicus) (UniProt P19493); experiment: Agonist activity at rat recombinant GluR4 flip isomer expressed in HEK293 cells assessed as increase in intracellular calcium level by Fluo-4/AM assay relative to glutamic acid; type: functional, cell-based
[16] = molecular target: Glutamate NMDA receptor; experiment: Displacement of [3H]CGP from NMDA receptor in rat cortical synaptosomes; type: subcellular, Brain
[17] = molecular target: T5, Glutamate receptor ionotropic, kainate 1 (Rattus norvegicus, UniProt P22756); experiment: Displacement of [3H]SYM from rat recombinant GluR5(Q) RNA-edited isoform expressed in baculovirus infected Sf9 cells
[18] = molecular target: T6, Glutamate receptor ionotropic, kainate 2 (Rattus norvegicus, UniProt P42260); experiment: Displacement of [3H]KA from rat recombinant GluR6(VCR) RNA-edited isoform expressed in baculovirus infected Sf9 cells
[19] = molecular target: Glutamate receptor ionotropic, kainate 3 (Rattus norvegicus, UniProt P42264); experiment: Displacement of [3H]SYM from rat recombinant GluR7A expressed in baculovirus infected Sf9 cells
[20] = molecular target: T6, Glutamate receptor ionotropic, kainate 2; experiment: Agonist activity at rat recombinant GluR6(Q) RNA-edited isoform expressed in HEK293 cells assessed as increase in intracellular calcium level by Fluo-4/AM assay; type: functional, cell-based
[21] = molecular target: T5, Glutamate receptor ionotropic, kainate 1; experiment: Agonist activity at ConA-treated rat GluR5(Q) RNA-edited isoform expressed in Xenopus laevis oocytes assessed as glutamic acid-induced maximal current by two-electrode voltage clamp method; type: functional, cell-based, Oocyte
[22] = molecular target: Glutamate NMDA receptor; Grin1/Grin2a (Rattus norvegicus, UniProt P35439+Q00959); experiment: Agonist activity at ConA-treated rat NR1/NR2A expressed in Xenopus laevis oocytes assessed as glycine-induced maximal current by two-electrode voltage clamp method; type: functional, cell-based, Oocyte
[23] = molecular target: T5, Glutamate receptor ionotropic, kainate 1
Description: Agonist activity at rat recombinant GluR5(Q) RNA-edited isoform expressed in HEK293 cells assessed as increase in intracellular calcium level by Fluo-4/AM assay

T5 sequence (P22756 whole entry, canonical isoform): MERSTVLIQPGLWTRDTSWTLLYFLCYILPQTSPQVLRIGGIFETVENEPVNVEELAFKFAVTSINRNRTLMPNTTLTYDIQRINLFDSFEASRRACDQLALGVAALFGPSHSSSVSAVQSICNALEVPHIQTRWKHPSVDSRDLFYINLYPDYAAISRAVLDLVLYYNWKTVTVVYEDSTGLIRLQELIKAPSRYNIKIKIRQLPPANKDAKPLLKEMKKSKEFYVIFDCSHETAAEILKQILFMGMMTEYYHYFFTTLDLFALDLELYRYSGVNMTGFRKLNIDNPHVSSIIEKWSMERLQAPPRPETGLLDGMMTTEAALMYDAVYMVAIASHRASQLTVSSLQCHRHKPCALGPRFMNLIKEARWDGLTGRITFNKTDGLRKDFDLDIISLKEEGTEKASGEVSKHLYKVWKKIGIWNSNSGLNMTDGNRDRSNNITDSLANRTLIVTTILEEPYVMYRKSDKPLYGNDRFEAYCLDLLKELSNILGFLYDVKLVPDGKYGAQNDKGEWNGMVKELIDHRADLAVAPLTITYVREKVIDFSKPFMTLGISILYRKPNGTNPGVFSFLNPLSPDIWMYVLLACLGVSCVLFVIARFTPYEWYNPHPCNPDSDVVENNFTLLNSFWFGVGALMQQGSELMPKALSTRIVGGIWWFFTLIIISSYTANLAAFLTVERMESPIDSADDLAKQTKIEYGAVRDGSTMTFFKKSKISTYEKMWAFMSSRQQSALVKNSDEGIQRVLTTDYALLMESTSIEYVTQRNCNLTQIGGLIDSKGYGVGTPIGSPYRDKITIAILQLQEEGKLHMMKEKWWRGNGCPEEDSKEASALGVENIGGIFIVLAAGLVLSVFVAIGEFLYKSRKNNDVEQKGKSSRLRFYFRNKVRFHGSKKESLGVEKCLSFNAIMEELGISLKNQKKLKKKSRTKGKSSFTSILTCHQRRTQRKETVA
T2 sequence (P19491 whole entry, canonical isoform): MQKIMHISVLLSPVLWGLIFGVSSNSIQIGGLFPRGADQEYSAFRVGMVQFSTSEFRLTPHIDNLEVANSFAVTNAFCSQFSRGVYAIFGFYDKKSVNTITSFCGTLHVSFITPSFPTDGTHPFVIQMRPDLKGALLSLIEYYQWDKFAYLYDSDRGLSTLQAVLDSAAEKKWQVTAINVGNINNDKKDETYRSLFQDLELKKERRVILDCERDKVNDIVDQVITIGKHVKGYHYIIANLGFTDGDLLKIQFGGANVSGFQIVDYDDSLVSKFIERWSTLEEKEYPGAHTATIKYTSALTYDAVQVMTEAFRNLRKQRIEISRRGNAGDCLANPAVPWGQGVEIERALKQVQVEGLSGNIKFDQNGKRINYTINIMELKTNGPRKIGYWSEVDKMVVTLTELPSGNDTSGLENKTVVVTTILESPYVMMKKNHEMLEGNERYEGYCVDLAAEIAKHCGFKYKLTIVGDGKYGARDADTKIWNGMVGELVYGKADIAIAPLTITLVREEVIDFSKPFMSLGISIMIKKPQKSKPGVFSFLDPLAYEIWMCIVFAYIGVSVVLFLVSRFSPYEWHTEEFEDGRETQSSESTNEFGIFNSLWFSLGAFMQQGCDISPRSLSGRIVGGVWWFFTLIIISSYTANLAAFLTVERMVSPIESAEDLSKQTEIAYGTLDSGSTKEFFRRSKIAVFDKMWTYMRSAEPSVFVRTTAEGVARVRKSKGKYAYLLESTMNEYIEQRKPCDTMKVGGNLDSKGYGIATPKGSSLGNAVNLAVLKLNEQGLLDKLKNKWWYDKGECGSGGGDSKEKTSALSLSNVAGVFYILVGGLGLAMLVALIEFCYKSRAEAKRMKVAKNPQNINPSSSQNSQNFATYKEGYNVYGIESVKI
T4 sequence (P19493 whole entry, canonical isoform): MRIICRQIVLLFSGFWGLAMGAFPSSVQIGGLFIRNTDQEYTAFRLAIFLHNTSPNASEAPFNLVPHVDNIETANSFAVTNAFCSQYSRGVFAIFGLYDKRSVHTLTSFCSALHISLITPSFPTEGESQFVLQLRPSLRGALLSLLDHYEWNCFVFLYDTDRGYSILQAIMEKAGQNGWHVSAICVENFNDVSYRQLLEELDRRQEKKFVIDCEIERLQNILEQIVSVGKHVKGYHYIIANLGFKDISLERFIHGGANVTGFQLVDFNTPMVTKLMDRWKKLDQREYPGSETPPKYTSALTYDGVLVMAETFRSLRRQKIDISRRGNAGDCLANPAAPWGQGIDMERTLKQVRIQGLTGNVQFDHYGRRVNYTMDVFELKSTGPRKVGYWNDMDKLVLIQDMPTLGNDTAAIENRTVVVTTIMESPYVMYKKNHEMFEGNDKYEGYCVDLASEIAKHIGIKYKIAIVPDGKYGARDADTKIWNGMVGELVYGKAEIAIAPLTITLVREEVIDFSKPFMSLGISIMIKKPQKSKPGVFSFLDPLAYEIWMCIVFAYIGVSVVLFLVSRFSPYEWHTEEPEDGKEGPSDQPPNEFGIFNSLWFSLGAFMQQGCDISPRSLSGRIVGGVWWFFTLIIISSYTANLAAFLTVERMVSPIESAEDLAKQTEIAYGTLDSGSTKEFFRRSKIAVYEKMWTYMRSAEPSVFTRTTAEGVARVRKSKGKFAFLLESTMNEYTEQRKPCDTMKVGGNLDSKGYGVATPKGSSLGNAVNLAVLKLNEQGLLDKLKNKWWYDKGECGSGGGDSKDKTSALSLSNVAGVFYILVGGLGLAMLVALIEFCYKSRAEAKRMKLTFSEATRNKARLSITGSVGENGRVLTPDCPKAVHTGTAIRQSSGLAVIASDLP
Glutamate receptor 4 (Rattus norvegicus), sequence (P19493 whole entry): as the sequence (P19493 whole entry, canonical isoform) above
T1 sequence (P19490 whole entry, canonical isoform): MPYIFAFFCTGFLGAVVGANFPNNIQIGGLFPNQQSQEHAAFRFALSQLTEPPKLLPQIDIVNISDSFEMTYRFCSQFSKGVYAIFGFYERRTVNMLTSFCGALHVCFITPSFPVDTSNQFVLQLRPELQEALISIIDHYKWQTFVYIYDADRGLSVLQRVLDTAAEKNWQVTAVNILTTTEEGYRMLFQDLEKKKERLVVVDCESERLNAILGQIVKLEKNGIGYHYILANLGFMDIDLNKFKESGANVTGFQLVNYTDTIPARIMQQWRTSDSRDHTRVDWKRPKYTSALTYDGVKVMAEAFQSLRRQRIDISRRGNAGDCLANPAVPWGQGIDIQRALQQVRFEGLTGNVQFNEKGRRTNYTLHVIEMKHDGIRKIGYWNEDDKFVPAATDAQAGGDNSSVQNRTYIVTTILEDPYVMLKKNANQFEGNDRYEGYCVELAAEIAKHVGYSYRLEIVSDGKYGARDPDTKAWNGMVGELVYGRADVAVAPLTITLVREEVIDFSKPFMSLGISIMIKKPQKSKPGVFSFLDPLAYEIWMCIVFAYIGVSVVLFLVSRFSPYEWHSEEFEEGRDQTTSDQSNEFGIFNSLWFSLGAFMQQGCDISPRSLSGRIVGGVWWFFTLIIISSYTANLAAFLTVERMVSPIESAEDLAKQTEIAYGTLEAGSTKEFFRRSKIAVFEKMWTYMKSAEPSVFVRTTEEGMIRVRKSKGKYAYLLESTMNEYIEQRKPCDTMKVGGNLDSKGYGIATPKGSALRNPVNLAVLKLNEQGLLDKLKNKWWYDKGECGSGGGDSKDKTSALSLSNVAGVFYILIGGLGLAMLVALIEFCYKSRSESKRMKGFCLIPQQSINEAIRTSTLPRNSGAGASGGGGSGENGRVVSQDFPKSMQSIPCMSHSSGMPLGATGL
Glutamate receptor 1 (Rattus norvegicus), sequence (P19490 whole entry, canonical isoform): as above
Glutamate receptor 3 (Rattus norvegicus), sequence (P19492 whole entry): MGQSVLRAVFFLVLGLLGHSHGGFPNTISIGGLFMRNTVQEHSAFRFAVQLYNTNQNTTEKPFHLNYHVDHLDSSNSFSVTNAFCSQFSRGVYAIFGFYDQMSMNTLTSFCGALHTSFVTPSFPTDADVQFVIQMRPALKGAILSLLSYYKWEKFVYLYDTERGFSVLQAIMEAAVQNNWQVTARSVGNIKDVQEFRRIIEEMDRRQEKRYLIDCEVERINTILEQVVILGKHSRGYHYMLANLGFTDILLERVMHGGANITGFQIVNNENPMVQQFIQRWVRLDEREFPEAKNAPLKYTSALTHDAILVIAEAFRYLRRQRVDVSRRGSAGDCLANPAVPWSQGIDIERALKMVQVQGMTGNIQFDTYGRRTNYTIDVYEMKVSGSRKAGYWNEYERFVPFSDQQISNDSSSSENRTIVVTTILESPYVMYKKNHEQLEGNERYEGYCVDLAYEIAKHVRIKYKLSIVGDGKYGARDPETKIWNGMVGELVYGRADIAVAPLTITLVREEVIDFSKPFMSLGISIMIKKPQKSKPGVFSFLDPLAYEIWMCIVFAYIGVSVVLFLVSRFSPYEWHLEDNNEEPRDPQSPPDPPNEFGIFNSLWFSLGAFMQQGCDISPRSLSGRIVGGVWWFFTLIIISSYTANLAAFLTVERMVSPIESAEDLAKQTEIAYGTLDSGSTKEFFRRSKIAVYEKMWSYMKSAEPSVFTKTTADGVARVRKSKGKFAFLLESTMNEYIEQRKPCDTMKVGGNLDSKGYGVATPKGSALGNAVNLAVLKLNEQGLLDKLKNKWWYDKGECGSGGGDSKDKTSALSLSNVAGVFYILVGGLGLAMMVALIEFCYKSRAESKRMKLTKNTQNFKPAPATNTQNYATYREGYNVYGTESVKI
T3 sequence (P19492 whole entry, canonical isoform): as the sequence (P19492 whole entry) above

Structure (SMILES)	Ki [2]	Ki [3]	Ki [4]	Ki [5]	EC50 [6]	EC50 ([7]; read-out: EC50)	EC50 [8]	EC50 [9]	IC50 [10]	IC50 [11]	Activity [12]	Activity [13]	Activity [15]	Ki [16]	EC50 ([14]; read-out: EC50)	also measured
CC(C)(C)c1o[nH]c(=O)c1C[C@H](N)C(=O)O	2780 nM	1660 nM	2040 nM	2140 nM	730 µM	630 µM	62 µM	> 1000 µM								Ki [1]: > 100 µM
CC(C)(C)c1onc(O)c1C[C@H](N)C(=O)O									1800 nM	23 µM	101%	100%	102%			EC50 ([14]; hek293, read-out: EC50): 150 µM
N[C@@H](CC1=CCCCc2onc(O)c21)C(=O)O	232 nM	175 nM	173 nM	202 nM	32 µM	13 µM	4.5 µM	92 µM	280 nM	1.6 µM	28%	54%	79%	> 100 µM	6.7 µM	
CC1CCC=C(C[C@H](N)C(=O)O)c2c(O)noc21 (mixture of isomers)	1550 nM	6310 nM	1110 nM	2200 nM	70 µM	48 µM	70 µM	160 µM	9700 nM	8.3 µM	29%	46%	68%	> 100 µM	35 µM	Ki [17]: 5.08 nM; Ki [18]: > 100 µM; Ki [19]: 1380 nM; EC50 ([7]; read-out: pEC50 (converted)): 63.1 µM; EC50 ([14]; read-out: pEC50 (converted)): 158 µM; EC50 [20]: > 1 mM; EC50 [21]: 240 nM; EC50 [22]: > 1 mM; EC50 [23]: 860 nM
Cc1onc(O)c1C[C@H](N)C(=O)O [(S)-AMPA]									39 nM	> 100 µM						
C=C(C)[C@H]1CN[C@H](C(=O)O)[C@H]1CC(=O)O [KAINIC ACID]											18%	45%	55%		47 µM	
